CN1C(C(=O)Nc2ccccn2)=C(O)c2sccc2S1(=O)=O
Settings	solubility (mole fraction)
in PEG-400, 298.15 K	0.0098
in PEG-400, 303.15 K	0.0134
in PEG-400, 308.15 K	0.0178
in PEG-400, 313.15 K	0.0228
in PEG-400, 323.15 K	0.035

in water
Settings	solubility (mole fraction)
298.15 K	4.13e-06
303.15 K	5.1e-06
308.15 K	6.62e-06
313.15 K	8.49e-06
323.15 K	1.4e-05
